The text below walks through data of publication PMC9878661, “Syntheses, Structural Characterization, and Cytotoxicity Assessment of Novel Mn(II) and Zn(II) Complexes of Aroyl-Hydrazone Schiff Base Ligand” (ACS Omega, 2023).

This experiment deals with T1, bovine serum albumin (BSA) (Bos taurus, UniProt P02769).
T1 construct: gene ALB
The experiment can be described thus: UV-vis absorption titration of BSA at […] nm (double reciprocal plot). The class given is binding. The conditions noted are these: read-out: UV-vis absorption titration of BSA at 280 nm (double reciprocal plot) (converted).

T1 sequence (P02769 25-607): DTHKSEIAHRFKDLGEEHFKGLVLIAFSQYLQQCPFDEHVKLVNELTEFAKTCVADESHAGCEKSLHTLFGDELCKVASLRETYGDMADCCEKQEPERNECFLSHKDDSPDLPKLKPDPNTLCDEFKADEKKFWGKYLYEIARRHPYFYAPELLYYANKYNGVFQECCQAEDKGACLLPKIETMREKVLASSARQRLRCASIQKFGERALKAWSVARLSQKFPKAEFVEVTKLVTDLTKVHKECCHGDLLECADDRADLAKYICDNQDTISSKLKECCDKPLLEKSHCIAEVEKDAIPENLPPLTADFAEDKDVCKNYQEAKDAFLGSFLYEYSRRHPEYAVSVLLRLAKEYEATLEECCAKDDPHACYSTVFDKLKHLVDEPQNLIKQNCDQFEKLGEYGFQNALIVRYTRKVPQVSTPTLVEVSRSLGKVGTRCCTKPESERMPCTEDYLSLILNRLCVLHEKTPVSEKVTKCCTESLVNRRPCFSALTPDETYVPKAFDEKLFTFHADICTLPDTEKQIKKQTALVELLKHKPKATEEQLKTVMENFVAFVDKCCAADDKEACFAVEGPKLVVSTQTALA

On to `O=C(NN=Cc1c[nH]c2ccccc12)c1ccncc1` [L1, N′-[(E)-3-Indol-3-ylmethylene] isonicotinohydrazide], for which the Kd was 261 µM.
